Where no end group is shown, it is not given here.
Tests used:
[1] = molecular target: T1, fibrinogen (Homo sapiens, UniProt P02671+P02675+P02679); experiment: peptide binding to protein-coated polystyrene surfaces (fibrinogen); conditions: biotinylated peptide; common blood plasma protein
T1 sequence (P02671 20-629 limits assumed): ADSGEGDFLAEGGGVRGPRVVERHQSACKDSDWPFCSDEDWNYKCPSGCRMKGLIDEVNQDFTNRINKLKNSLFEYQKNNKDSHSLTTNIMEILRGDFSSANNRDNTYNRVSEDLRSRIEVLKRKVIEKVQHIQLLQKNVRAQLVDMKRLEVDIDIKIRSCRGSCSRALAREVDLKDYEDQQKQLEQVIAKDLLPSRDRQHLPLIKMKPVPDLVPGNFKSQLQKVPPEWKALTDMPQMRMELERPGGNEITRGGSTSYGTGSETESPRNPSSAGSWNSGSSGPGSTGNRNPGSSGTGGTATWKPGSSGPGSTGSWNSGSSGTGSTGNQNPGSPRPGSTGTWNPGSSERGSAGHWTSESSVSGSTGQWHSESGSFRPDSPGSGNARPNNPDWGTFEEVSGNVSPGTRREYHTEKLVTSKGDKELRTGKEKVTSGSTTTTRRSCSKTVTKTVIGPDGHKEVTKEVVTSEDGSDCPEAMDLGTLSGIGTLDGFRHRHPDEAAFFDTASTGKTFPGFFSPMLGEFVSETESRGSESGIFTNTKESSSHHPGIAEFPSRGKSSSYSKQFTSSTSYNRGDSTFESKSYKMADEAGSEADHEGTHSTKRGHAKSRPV
T1 sequence (P02675 31-491): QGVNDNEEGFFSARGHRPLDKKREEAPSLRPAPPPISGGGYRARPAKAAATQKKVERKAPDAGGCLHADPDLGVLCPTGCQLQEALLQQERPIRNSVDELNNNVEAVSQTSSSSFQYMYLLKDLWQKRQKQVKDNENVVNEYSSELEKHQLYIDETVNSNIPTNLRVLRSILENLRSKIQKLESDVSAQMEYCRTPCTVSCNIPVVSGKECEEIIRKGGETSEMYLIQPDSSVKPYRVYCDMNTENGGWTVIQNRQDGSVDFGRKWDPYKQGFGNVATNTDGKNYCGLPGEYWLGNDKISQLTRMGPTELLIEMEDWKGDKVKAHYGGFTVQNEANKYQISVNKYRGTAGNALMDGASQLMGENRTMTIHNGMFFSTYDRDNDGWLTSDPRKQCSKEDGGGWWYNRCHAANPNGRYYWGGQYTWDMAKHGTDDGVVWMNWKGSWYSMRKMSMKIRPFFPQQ
T1 sequence (P02679 27-433 limits assumed): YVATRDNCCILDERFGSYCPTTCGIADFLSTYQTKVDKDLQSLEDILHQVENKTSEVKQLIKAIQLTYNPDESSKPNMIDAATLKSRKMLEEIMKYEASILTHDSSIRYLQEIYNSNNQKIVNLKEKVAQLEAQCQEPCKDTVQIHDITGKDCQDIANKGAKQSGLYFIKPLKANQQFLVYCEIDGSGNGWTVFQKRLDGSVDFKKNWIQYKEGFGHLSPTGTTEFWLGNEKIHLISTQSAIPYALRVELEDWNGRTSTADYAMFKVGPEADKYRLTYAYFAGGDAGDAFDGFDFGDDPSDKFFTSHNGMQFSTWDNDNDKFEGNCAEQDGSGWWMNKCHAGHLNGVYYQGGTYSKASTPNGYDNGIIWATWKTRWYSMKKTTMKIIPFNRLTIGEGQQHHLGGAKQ
Method: (§1) During the development of embodiments of the technology provided herein, experiments were conducted to assess the binding specificity of the CREKA peptides towards fibrin and non-target components. […] Proteins were applied to uncoated polystyrene surfaces at 10 μg/cm^2 and washed with PBS three times to remove unbound protein. A range of concentrations of biotinylated CREKA and biotinylated CERAK were incubated with the treated surfaces overnight, then washed three times the next day to remove the unbound peptides. The peptides remaining on the protein-coated surfaces were quantified using fluorophore-conjugated streptavidin. […] These properties of the heparin-CREKA compounds indicate that heparin-CREKA is appropriate for administration by intravenous injection.

[2] = test system: fibrin; experiment: peptide binding to protein-coated polystyrene surfaces (fibrin); conditions: biotinylated peptide vs scrambled CERAK; protein 10 μg/cm^2; overnight; fluorophore-conjugated streptavidin
Method: as §1

[3] = molecular target: albumin (Homo sapiens, UniProt P02768); experiment: peptide binding to protein-coated polystyrene surfaces (albumin); conditions: biotinylated peptide; common blood plasma protein
Method: as §1

[4] = test system: ePTFE graft in abdominal aorta; experiment: rat abdominal aorta interposition model with ePTFE graft; format: in vivo, Sprague Dawley rats; conditions: two intravenous doses, 24 hours; middle_3 and distal segments
Method: During the development of embodiments of the technology provided herein, experiments were conducted to evaluate the in vivo performance of the heparin-CREKA relative to conventional clinically used heparin. In particular, heparin-CREKA was studied in a rat abdominal aorta interposition model. Briefly, male Sprague Dawley rats (200-500 g) were anesthetized by a ketamine/xylazine cocktail. The abdomen of the anesthetized rat was entered through a midline incision. The abdominal aorta was exposed (FIG. 7, Panel A), clamped in both proximal and distal regions using micro-vessel clips, and then excised between the clamps (FIG. 7, Panel B). A segment (e.g., approximately 1 cm in length; 1.524±0.05 mm in diameter) of expanded polytetrafluoroethylene (ePTFE) was used as a graft. The graft was connected to the abdominal aorta using an end-to-end anastomosis technique with interrupted stitches at each end (FIG. 7, Panel C). Following reperfusion of blood flow through the graft, one dose of anti-coagulant (heparin or heparin-CREKA) was given systemically via intravenous injection. The incision was then closed in layers. 24 hours after the initial implantation surgeries and immediately prior to sacrifice of the test […], a second dose of […] (heparin or heparin-CREKA) was administered systemically via intravenous injection. […]

[5] = test system: Pig whole blood; experiment: whole blood clotting assay on fibrin coated plates; format: cell-based; conditions: fibrin coated 96-well plates pre-treated 30 minutes, washed three times with PBS; re-calcified blood; absorbance 405 nm
Method: During the development of embodiments of the technology provided herein, experiments were conducted to test the anti-coagulant activity of embodiments of the heparin-CREKA compounds described herein. In particular, the heparin-CREKA compounds were evaluated by a whole blood clotting assay and a platelet adhesion assay (FIGS. 4 and 5). Pig whole blood was collected into acid citrate dextrose (ACD) anticoagulant. Fibrin coated 96-well plates were pre-treated with phosphate-buffered saline (PBS), heparin, or heparin-CREKA for 30 minutes at room temperature, then followed with three washes with PBS prior to the test. The wash removes unbound heparin or heparin-CREKA from the surfaces. Control experiments included tests of tissue culture treated and untreated polystyrene 96 well plates. […] The coagulation process was monitored at each selected time point by adding 150 μl of deionized water into each well to lyse the unclotted red blood cells. The lysate was then transferred into a new plate and the absorbance was measured at a wavelength of 405 nm. Higher absorbance represents more unclotted red blood cells and better anti-coagulation effect. The anti-coagulant effect of heparin-CREKA was detected up to 60 minutes while the effect of the conventional heparin was undetectable 20 minutes after contacting the blood (FIG. 4).

[6] = test system: graft site; experiment: in vivo dosing studies, anti-coagulant effect at the graft site by imaging
Method: During the development of embodiments of the technology provided herein, experiments were conducted to study the in vivo binding and pharmacology response of the embodiments of heparin-CREKA. In particular, data were collected from three animal studies in which the dosing period was varied. Study 1—animals were scarified 24 hours after the initial surgery and 2 doses of heparin-CREKA or control heparin-CERAK were administrated by intravenous injection during the 24 hour period. The first dose was administered immediately after the surgery (e.g., after re-establishing blood flow at the graft area). The second dose was administered 6 hours prior to euthanizing the animal. Imaging data were collected and analyzed to evaluate the anti-coagulant effect of heparin-CREKA at the graft site. […] Study 2—animals were kept alive for 7 days after surgery and one dose of heparin-CREKA or control heparin-CERAK was administrated by intravenous injection immediately after the surgery (e.g., after re-establishing blood flow at the graft area). In contrast to Study 1, no additional dose was given after the first dose. Imaging data were collected and analyzed to evaluate the anti-coagulant effect of heparin-CREKA at the graft site. […] Study 3—animals were kept alive for 7 days after surgery and two doses of heparin-CREKA or control heparin-CERAK were administrated by intravenous injection during the 7 day period. The first dose was administered immediately after the surgery (e.g., after re-establishing blood flow at the graft area). The second dose was administered 6 hours before euthanizing the animal. Imaging data were collected and analyzed to evaluate the anti-coagulant effect of heparin-CREKA at the graft site.

[7] = test system: platelets; experiment: platelet adhesion assay using platelet-rich plasma on fibrin surfaces; format: cell-based; conditions: compared to bare fibrin surface; at a lower concentration than heparin; PRP 1:10, 37° C., 60 minutes; LDH readout
Method: Next, during the development of embodiments of the technology provided herein, experiments were conducted to test the anticoagulation activity of embodiments of the heparin-CREKA compounds described herein. In particular, a platelet adhesion assay was performed using platelet-rich plasma (PRP). Surfaces were treated with various concentrations of heparin or heparin-CREKA as described above. PRP, diluted 1:10 in PBS, was incubated at 37° C. for 60 minutes with the samples and gently rinsed with warm PBS. The number of adherent platelets was determined by detecting the amount of lactate dehydrogenase (LDH) present after cell lysis. Briefly, adherent platelets were lysed by incubation with 2% Triton-PSB buffer for 30 minutes at 37° C. A colorimetric substrate for LDH was added and incubated for 20 minutes at 37° C. The optical density was measured at a wavelength of 490 nm. A calibration curve was generated from a series of serial dilutions of a known platelet concentration and used to determine the number of adhered platelets.

Substance	binding to fibrinogen [1]	CREKA-fibrin binding [2]	binding to albumin [3]	clotting in the grafts (histology) [4]	time for which the anti-coagulant effect was detected after contacting the blood [5]	anti-coagulant effect at the graft site relative to heparin-CERAK ([6]; Study 1: 24 hours, 2 intravenous doses (after surgery and 6 hours prior to euthanizing))	anti-coagulant effect at the graft site relative to heparin-CERAK ([6]; Study 2: 7 days, one intravenous dose immediately after surgery)	anti-coagulant effect at the graft site relative to heparin-CERAK ([6]; Study 3: 7 days, two intravenous doses (after surgery and 6 hours before euthanizing))	amount of adhered platelets [7]
Cys-Arg-Glu-Lys-Ala (CREKA; also: biotinylated, site not given here) [tested in biotinylated form]	very weakly	highly specific	very weakly	–	–	–	–	–	–
heparin [reference compound]	–	–	–	major clotting	< 20 min	–	–	–	–
heparin-CREKA: heparin covalently linked through a BMPH linker to the fibrin binding peptide Cys-Arg-Glu-Lys-Ala (CREKA) (also: heparin linked via BMPH linker, site not given here)	–	–	–	remained clean	up to 60 minutes	significant improvement	only a very small difference	significant improvement	significantly reduced

Reference: patent US20250129184A1, “TARGETED ANTICOAGULANT” (Northwestern University, priority 2016, published 2025)
